≈ marks a conversion by molar mass, not a printed value. Structures can show the parent of a compound that is named as a salt. Where two headings read alike, the source gives them in different places.
What was measured:
[1] = Acute toxicity rat LD50 iv; details: in vivo
[2] = Arrhythmias induced by electrical stimulation of the isolated rabbit atrium (anti-arrhythmic activity); details: TD / ED30, isolated rabbit atrium; read-out: I.T. (2), therapeutic index from the ratio TD/ED30
Method: (§1) The ED30 in the presence of scalar concentrations of anti-arrhythmic substances was measured.

isolated rabbit atrium = assay: as above; details: for EC30: Oryctolagus cuniculus, read-out: anti-arrhythmic activity, Electrical stimulation in isolated rabbit atrium ED30
Method: as §1

[3] = Antagonism towards electric shock convulsions in the mouse; type: in vivo; details: po, 0.5 h, read-out: Anti-convulsion activity, electric shock, mouse, % att.; for inhibition in vivo at 26 mg/kg: 26 mg/kg os; for inhibition in vivo at 200 mg/kg: 200 mg/kg os
Method: This is evaluated by observing the protection given by pretreatment with the drug (30 minutes) against tonic convulsions obtained by applying a 35 volt current to the eyeballs.

[4] = Acute toxicity under LD50 mouse; details: in vivo, ip
[5] = tested on: Rabbit platelet aggregation; assay: Rabbit platelet aggregation in vitro; type: cell-based; details: Oryctolagus cuniculus, rabbit PRP, aggregation by sodium adenosine diphosphate, read-out: Platelet anti-aggregation activity, rabbit in vitro ED50
Method: Rabbit platelet aggregation in vitro The method of […] (Pharmacology, 7, 115, 1972) was followed. Blood taken from conscious rabbits is centrifuged in the presence of sodium citrate (3.8%) at 350 g. for 10 minutes, so as to separate the plasma rich in platelets (PRP) from the rest. The aggregation of the platelets is carried out by bringing the PRP into contact with adequate doses of sodium adenosine diphosphate in the presence of a possible inhibitor or its carrier. The measurement of aggregation is made continuously by a turbidimetric method.

[6] = Ulcers by constriction (stress) in the rat; type: in vivo; details: 4 h; for responders at 10 mg/kg / inhibition in vivo at 10 mg/kg: 10 mg/kg ip; for responders at 10 mg/kg / responders at 30 mg/kg: read-out: Anti-ulcer activity, ulcers by stress in the rat, Protected rats %; for inhibition in vivo at 10 mg/kg / inhibition in vivo at 30 mg/kg: read-out: Anti-ulcer activity, ulcers by stress in the rat, Reduction in ulcers %
Method: The method described by Rossi and colleagues (Compt. Rend. Soc. Biol., 150, 2124, 1956) was followed in which the formation of gastric ulcers is induced by immobilising the animal, in a state of fast for 48 hours, in a net for a period of 4 hours.
The protection given by treatment with the drug under examination before the beginning of the constriction period is evaluated by counting both the ulcers and the number of subjects without ulcers.

[7] = Inhibition of spontaneous motility in the mouse; type: in vivo; details: for ED50: po, 0.5 h, read-out: Spontaneous motility inhibition mouse ED50
Method: This is evaluated by an actophotometric method, which consists of placing the mice, 30 minutes after oral treatment with the drug or the carrier, in a cage provided with a photoelectric cell counter and counting the number of times the photoelectric cell is passed during a 10 minute stay.

nor-adrenalin = assay: Antagonism towards a lethal dose of nor-adrenalin in the rat (α-adrenolytic activity); type: in vivo; details: for ED50: po, 1 h, read-out: α-adrenolytic activity lethal NA rat ED50
Method: Antagonism towards a lethal dose of nor-adrenalin in the rat
The animals are treated with a dose of nor-adrenalin (0.5 mg/kg) which is 100% lethal in animals. The activity is calculated by the number of animals protected from death by prior administration of the drug under examination one hour before the agonist. Where possible the ED50 was calculated.

[8] = Fibrillation induced by CaCl2 of the rat anaesthetised with urethane (anti-arrhythmic activity); type: in vivo; details: for selectivity ratio: in vivo, LD50 rat iv / ED50 CaCl2, read-out: I.T. (1), therapeutic index from the ratio LD50 rat iv/ED50; for ED50: rat anaesthetised with urethane, iv
Method: Fibrillation induced by CaCl2 of the rat anaesthetised with urethane (1 g/kg ip)
The method described by Malinow and colleagues (Rev. Argent. Cardiol., 19, 120, 1952) was followed, which consists of inducing cardiac fibrillation by administering intravenously 2 ml/kg of an 8% solution of CaCl2 in rats pretreated intravenously with scalar doses of anti-arrhythmics. The ED50 was calculated for each active drug.

[9] = Pinching the tail of the mouse (systemic analgesic activity); type: in vivo; details: po, 0.5 h; for inhibition in vivo at 26 mg/kg: 26 mg/kg os; for inhibition in vivo at 200 mg/kg: 200 mg/kg os
Method: To evaluate the analgesic activity, the method described by Bianchi and colleagues (Brit. J. Pharmacol., 9, 280, 1954) was followed which consists of applying an arterial pincer to the base of the tail in animals treated orally 30 minutes previously with the drug under examination, observing that the control animals react to the pain by squealing.

[10] = Carrageen oedema in the conscious rat (anti-inflammatory activity); type: in vivo; details: for ED30: 1 h, ip, one hour before carrageen, read-out: Anti-inflammatory activity carrageenin oedema rat ED30
Method: Anti-inflammatory activity was evaluated by the method of Winter and colleagues (Proc. Soc. Exp. Biol., 111, 544, 1962) by endoperitoneally injecting the product under examination one hour before inducing oedema by injecting 0.05 ml. of a 1% suspension of carrageen (intradermally into the plantar portion of a rear paw).
The difference between the volume of the paw determined plethysmographically one hour before and three hours after the carrageen gives a quantitative estimate of the activity of the product tested. Where possible, the ED30 was calculated.

[11] = Cataleptic activity in the mouse; type: in vivo; details: for ED50: po, read-out: Cataleptic activity mouse ED50
[12] = mouse, os, 30 minutes after treatment
[13] = rat, os, one hour before nor-adrenalin 0.5 mg/kg

| SMILES | LD50 [1] | selectivity ratio [2] | EC30 (isolated rabbit atrium) | LD50 [4] | IC50 [5] | responders at 10 mg/kg ([6]; rat) | inhibition in vivo at 10 mg/kg ([6]; rat) | ED50 [7, 12] | selectivity ratio [8] | ED50 [8] | ED30 [10] | responders at 30 mg/kg ([6]; rat, 30 mg/kg ip) | inhibition in vivo at 30 mg/kg ([6]; rat, 30 mg/kg ip) | ED50 (nor-adrenalin; Rattus norvegicus) | ED50 ([11]; mouse, os) | Anti-inflammatory activity carrageenin oedema rat, percentage activity (ED30 lacking) ([10]; 200 mg/kg ip) | inhibition in vivo at 200 mg/kg ([3]; mouse, 35 volt) | inhibition in vivo at 200 mg/kg ([9]; mouse, 30 minutes) | also measured |
| --- | --- | --- | --- | --- | --- | --- | --- | --- | --- | --- | --- | --- | --- | --- | --- | --- | --- | --- | --- |
| CCN(CC)CCc1sc(=O)[nH]c1-c1ccc(F)cc1 [LR 602, 4-p-fluorophenyl-5-β-diethylaminoethyl-4-thiazolin-2-one] | 84 mg/kg | 30 | 10 µg/mL (≈ 34 µM) | 125 mg/kg | 800 µg/mL (≈ 2720 µM) | 50% | 65% | 30 mg/kg | 24 | 3.5 mg/kg | – | – | – | – | – | – | – | – | TD (dose which abolishes the spontaneous contraction of the atrium) (isolated rabbit atrium; rabbit): 300 µg/mL; inhibition in vivo at 26 mg/kg ([3]; mouse, 35 volt): 0%; α-adrenolytic activity lethal NA rat, percentage activity (ED50 lacking) (nor-adrenalin; rat, 7 mg/kg os): 0%; inhibition in vivo at 26 mg/kg ([9]; mouse, 30 minutes): 30% |
| O=c1[nH]c(-c2ccc(F)cc2)c(CCN2CCC(O)(c3ccc(Cl)cc3)CC2)s1 [LR 613, 4-p-fluorophenyl-5-β-[(4'-hydroxy-4'-p-chlorophenyl)-piperidino]-ethyl-4-thiazolin-2-one hydrochloride] | – | – | – | 300 mg/kg | – | – | – | – | – | – | – | – | – | – | – | – | – | – | Anti-inflammatory activity carrageenin oedema rat, percentage activity (ED30 lacking) ([10]; 60 mg/kg ip): 15.2%; inhibition in vivo at 60 mg/kg ([3]; Mus musculus): 10%; responders at 30 mg/kg ([6]; Rattus norvegicus, ip): 60%; inhibition in vivo at 30 mg/kg ([6]; Rattus norvegicus, ip): 80%; ED50 ([7]; Mus musculus): 18 mg/kg; α-adrenolytic activity lethal NA rat, percentage activity (ED50 lacking) (nor-adrenalin; rat, 15 mg/kg os): 20%; ED50 ([11]; Mus musculus): 32.4 mg/kg; inhibition in vivo at 60 mg/kg ([9]; Mus musculus, read-out: Systemic analgesic activity, tail pinching in mouse, %): 10% |
| CN(CCc1ccccc1)CCc1sc(=O)[nH]c1-c1ccc(F)cc1.O=C(O)/C=C\C(=O)O [LR 616, 4-p-fluorophenyl-5-β-(N-methylphenylethylamino)ethyl-4-thiazolin-2-one maleate] | – | – | – | 225 mg/kg | – | – | – | 40 mg/kg | – | – | 54 mg/kg | 10% | 0% | – | – | – | – | – | inhibition in vivo at 40 mg/kg ([3]; mouse, 40 mg/kg os, 35 volt): 0%; ED50 (nor-adrenalin; [13]): 5.5 mg/kg; Cataleptic activity mouse, percentage activity (ED50 lacking) ([11]; mouse, 40 mg/kg os): 0%; inhibition in vivo at 40 mg/kg ([9]; mouse, 40 mg/kg os, 30 minutes): 0% |
| Cl.O=c1[nH]c(-c2ccc(F)cc2)c(CCN2CCCCC2)s1 [LR 617, 4-p-fluorophenyl-5-β-piperidinoethyl-4-thiazolin-2-one hydrochloride] | 62 mg/kg | 69 | 4.3 µg/mL | 100 mg/kg | 800 µg/mL | 10% | 17% | 19.6 mg/kg | 15 | 4 mg/kg | – | – | – | – | – | – | – | – | TD (dose which abolishes the spontaneous contraction of the atrium) (isolated rabbit atrium; rabbit): 300 µg/mL; α-adrenolytic activity lethal NA rat, percentage activity (ED50 lacking) (nor-adrenalin; rat, 5 mg/kg os): 0% |
| COc1ccc(-c2[nH]c(=O)sc2CCN(C)CCc2ccccc2)cc1 [LR 620, 4-p-methoxyphenyl-5-β-(N-methylphenylethylamino)-ethyl-4-thiazolin-2-one maleate] | 24 mg/kg | 30 | 1 µg/mL | 100 mg/kg | 650 µg/mL | 0% | 0% | – | 12 | 2 mg/kg | 36 mg/kg | – | – | 5 mg/kg | – | – | – | – | TD (dose which abolishes the spontaneous contraction of the atrium) (isolated rabbit atrium; isolated rabbit atrium): 30 µg/mL; inhibition in vivo at 26 mg/kg ([3]; mouse, 35 volt): 20%; Spontaneous motility inhibition mouse, percentage activity (ED50 lacking) ([7]; mouse, 26 mg/kg os): 0%; inhibition in vivo at 26 mg/kg ([9]; mouse, 30 minutes): 0% |
| CN(CCc1ccccc1)CCc1sc(=O)[nH]c1-c1ccccc1.O=C(O)/C=C\C(=O)O [LR 630, 4-phenyl-5-β-(N-methylphenylethylamino)ethyl-4-thiazolin-2-one maleate] | – | – | – | 750 mg/kg | – | – | – | 60 mg/kg | – | – | 145 mg/kg | 10% | 0% | – | 180 mg/kg | – | – | – | inhibition in vivo at 180 mg/kg ([3]; mouse, 180 mg/kg os, 35 volt): 10%; ED50 (nor-adrenalin; [13]): 16 mg/kg; inhibition in vivo at 180 mg/kg ([9]; mouse, 180 mg/kg os, 30 minutes): 0% |
| O=c1[nH]c(-c2ccccc2)c(CCN2CCN(c3ccccc3)CC2)s1 [LR 637, 4-phenyl-5-β-(N'-phenylpiperazino)ethyl-4-thiazolin-2-one] | – | – | – | 1000 mg/kg | – | 57% | 86% | 200 mg/kg | – | – | – | – | – | 18 mg/kg | 200 mg/kg | 11.6% | 20% | 30% | – |
| O=c1[nH]c(-c2ccc(Cl)cc2)c(CCN2CCN(c3ccccc3)CC2)s1 [LR 638, 4-p-chlorophenyl-5-β-(N'-phenylpiperazino)ethyl-4-thiazolin-2-one] | – | – | – | > 1000 mg/kg | – | 60% | 63% | 200 mg/kg | – | – | – | – | – | – | 200 mg/kg | 14% | 10% | 10% | α-adrenolytic activity lethal NA rat, percentage activity (ED50 lacking) (nor-adrenalin; rat, 50 mg/kg os): 0% |
| COc1ccc(-c2[nH]c(=O)sc2CCN2CCN(c3ccccc3)CC2)cc1 [LR 639, 4-p-methoxyphenyl-5-β-(N'-phenylpiperazino)ethyl-4-thiazolin-2-one] | – | – | – | > 1000 mg/kg | – | 30% | 28% | 33 mg/kg | – | – | – | – | – | 45 mg/kg | 88 mg/kg | 8.1% | 0% | 0% | – |
| Cn1c(-c2ccc(F)cc2)c(CCN2CCN(c3ccccc3)CC2)sc1=O [LR 652, 3-methyl-4-p-fluorophenyl-5-β-(N'-phenylpiperazino)-ethyl-4-thiazolin-2-one] | – | – | – | > 1000 mg/kg | – | – | – | 23 mg/kg | – | – | 163 mg/kg | 50% | 68% | 13.3 mg/kg | 52.4 mg/kg | – | 40% | 0% | – |

From US4061637A, “Certain 4-aryl-5-(4-phenylpiperazino)alkyl-4-thiazolin-2-ones” (priority 1974, dated 1977)
